From ChEMBL document CHEMBL1201862, “PubChem BioAssay data set” (2004) come the findings set out here.

Holding throughout (experiment): NCI-60 cell line screen, 48 h
Test [1] deals with NCI-H23.
Test [2] concerns SF-539.
The test system of test [3] is SK-MEL-28.
The subject of test [4] is SF-268.
Test [5] has as its system IGROV-1.
Test [6] relates to HCT-116.
Test [7] has as its system NCI-H522.
In test [8] the test system is HOP-92.
Test [9] concerns OVCAR-3.
Test [10] relates to SK-MEL-5.
The subject of test [11] is KM12.
Test [12] deals with OVCAR-4.
The test system of test [13] is SNB-19.
In test [14] the test system is RXF 393.
Test [15] has as its system PC-3.
Test [16] deals with UACC-257.
Test [17] concerns HT-29.
Test [18] relates to Hs-578T.

Each structure is given as a SMILES string.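 Cells were grown in 96-well plates and exposed to each compound for 48 hours at five concentrations; endpoints were interpolated linearly between bracketing concentrations, or set to the highest concentration if not reached. GI50 = concentration required for 50% inhibition of growth.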 Calls of active or inactive are those of the source. No stated cut-off is given here; in the data, active = GI50 up to about 1.1 µM and inactive = higher.

With `C=CCCCCCCC#CCCCCCCCCCC[C@@H]1C(=O)O[C@H](C)[C@@H]1O.CCCCCCCCC#CCCCCCCCCCC[C@@H]1C(=O)O[C@H](C)[C@@H]1O`, the GI50 in test [1] was 8.39 µM (inactive); in [2] it was 20.8 µM (inactive); in test [3], 24 µM (inactive); in [4], 13.9 µM (inactive); in [5], 15.7 µM (inactive); in test [6] it was 16.2 µM (inactive). In addition, the GI50 in test [7] was 5.32 µM (inactive); in [8], 10.5 µM (inactive); in test [9], 20.2 µM (inactive); in test [10] it was 13.3 µM (inactive); in test [11], 10.1 µM (inactive); in test [12], 16.4 µM (inactive). Also, the GI50 in test [13] is 15.9 µM (inactive); in test [14], 11.4 µM (inactive); in [15] it was 13.1 µM (inactive); in test [16] it was 8.45 µM (inactive).

Consider `FC(F)(Sc1ccccn1)c1nc2ccccc2o1`, for which the GI50 in test [1], in [2], in [17], in [3], in test [4] and in test [5] was > 100 µM (inactive) throughout. Further, the GI50 in [6] is 62.2 µM (inactive); in test [7] it was > 100 µM (inactive); in test [8] it was 76.6 µM (inactive); in [9], 61.4 µM (inactive); in test [10] it was > 100 µM (inactive); in test [11], > 100 µM (inactive). In addition, the GI50 in test [12], in [14], in test [15] and in [16] was > 100 µM (inactive) each time.

Regarding `O=C(/C=C/c1ccsc1)c1ccsc1`, the GI50 is 21.6 µM (inactive) in [1]; 17.5 µM (inactive) in test [2]; 26.8 µM (inactive) in test [17]; 27.8 µM (inactive) in test [18]; 37.1 µM (inactive) in test [3]; 44.8 µM (inactive) in test [4]. For the same compound, the GI50 in test [5] is 31.3 µM (inactive); in test [6], 16.2 µM (inactive); in test [10], 19.2 µM (inactive); in [11] it was 18.9 µM (inactive); in test [12], 37.2 µM (inactive); in test [13] it was 20.2 µM (inactive). The GI50 in test [15] is 19.8 µM (inactive); in test [16] it was 19.1 µM (inactive).

On to `COc1ccc(CCN2C(=O)CC34C=CC(CC3C2=O)O4)cc1OC` (configuration not stated), for which the GI50 in test [1], in [2], in test [17], in test [3], in [5] and in test [6] was > 100 µM (inactive) throughout. The GI50 in [8] was 97.5 µM (inactive); in [9] it was > 100 µM (inactive); in test [10], > 100 µM (inactive); in [11] it was > 100 µM (inactive); in test [12], > 100 µM (inactive); in test [13] it was > 100 µM (inactive). The GI50 in [15] and in [16] was > 100 µM (inactive) each time.

`C=CCOCn1ccc(=O)[nH]c1=O`: the GI50 in test [1], in test [2], in test [17], in test [18], in test [3] and in [4] was > 100 µM (inactive) in each case. Also, the GI50 in test [5], in test [6], in test [7], in [10], in test [11] and in test [13] was > 100 µM (inactive) in each case. Also, the GI50 in test [15] and in test [16] was > 100 µM (inactive) each time.

Turning to `CCN(CC)C(=C(C(Cl)=C(Cl)Cl)[N+](=O)[O-])N(CC)CC`, the GI50 was 24.1 µM (inactive) in test [1]; > 100 µM (inactive) in test [2]; > 100 µM (inactive) in test [17]; 24.7 µM (inactive) in test [18]; 49.1 µM (inactive) in test [3]; 41 µM (inactive) in [4]. In addition, the GI50 in test [5] is 47.1 µM (inactive); in [6] it was 87.7 µM (inactive); in test [9] it was 37.5 µM (inactive); in [10], > 100 µM (inactive); in test [11], > 100 µM (inactive); in test [12], > 100 µM (inactive). Further, the GI50 in test [13] is 29.6 µM (inactive); in test [14], 17.3 µM (inactive); in test [15] it was > 100 µM (inactive); in test [16] it was 54.6 µM (inactive).

For `CCC1CC2CN3CCc4c([nH]c5c(-c6c(OC)ccc7c8c([nH]c67)[C@]6(C(=O)OC)CC7CC(CC)C6N(CC8)C7)c(O)ccc45)[C@](C(=O)OC)(C2)C13` (some centres not stated), the GI50 in test [1] is 16 µM (inactive); in test [2], 19.5 µM (inactive); in test [17] it was 5.37 µM (inactive); in test [3] it was 15.8 µM (inactive); in test [4], 12.1 µM (inactive); in [5] it was 14 µM (inactive). The GI50 in test [6] was 13 µM (inactive); in test [7], 15.7 µM (inactive); in [8], 12.9 µM (inactive); in test [9], 14.6 µM (inactive); in test [10], 13.6 µM (inactive); in test [11], 12.4 µM (inactive). Also, the GI50 is 14.3 µM (inactive) in test [13], 12.2 µM (inactive) in [14], 13.6 µM (inactive) in test [15] and 18.6 µM (inactive) in [16].

With `CCCCCCCCCCN(CCCCCCCCCC)C(=O)COc1c2cc(C(C)(C)C)cc1Cc1cc(C(C)(C)C)cc(c1OCC(=O)N(CCCCCCCCCC)CCCCCCCCCC)Cc1cc(C(C)(C)C)cc(c1OCC(=O)N(CCCCCCCCCC)CCCCCCCCCC)Cc1cc(C(C)(C)C)cc(c1OCC(=O)N(CCCCCCCCCC)CCCCCCCCCC)C2`, the GI50 was 1.75 µM (inactive) in [1]; 4.34 µM (inactive) in test [2]; 2.34 µM (inactive) in test [17]; 11.3 µM (inactive) in [3]; 15.1 µM (inactive) in [4]; 12.4 µM (inactive) in [5]. Also, the GI50 was 2.54 µM (inactive) in test [6]; 3.18 µM (inactive) in test [7]; < 0.01 µM (active) in test [8]; 15.7 µM (inactive) in test [9]; 13.5 µM (inactive) in test [10]; 11.5 µM (inactive) in test [11]. The GI50 is 10.4 µM (inactive) in test [12]; 9.79 µM (inactive) in test [13]; 9.68 µM (inactive) in test [14]; 9.93 µM (inactive) in [15]; 15.6 µM (inactive) in test [16].

In the case of `N#CCOc1cccc(C2(N3CC=CCC3)CCCCC2)c1`, the GI50 in test [1], in test [2], in [17], in [18], in test [3] and in test [4] was > 100 µM (inactive) each time. Moreover, the GI50 was > 100 µM (inactive) in test [5]; > 100 µM (inactive) in test [6]; 57.8 µM (inactive) in test [7]; > 100 µM (inactive) in [9]; > 100 µM (inactive) in test [10]; > 100 µM (inactive) in test [11]. Further, the GI50 is > 100 µM (inactive) in [12], > 100 µM (inactive) in test [13], > 100 µM (inactive) in test [15] and 72.3 µM (inactive) in [16].

For `C[n+]1ccccc1/C=C/c1ccc2c(c1)OCO2`, the GI50 in test [1], in test [2], in [17], in test [18], in [3] and in [4] was > 10 µM (inactive) throughout. Moreover, the GI50 in test [5], in test [6], in test [7], in test [9], in test [10] and in test [11] was > 10 µM (inactive) each time. Also, the GI50 in test [12], in test [13], in test [14], in test [15] and in test [16] was > 10 µM (inactive) in each case.

As for `CCOC(=O)Cc1nnc2c(-c3ccccc3)nc3ccccc3n12`, the GI50 is 43.3 µM (inactive) in test [1]; > 100 µM (inactive) in [2]; > 100 µM (inactive) in [17]; > 100 µM (inactive) in [3]; 20.6 µM (inactive) in [4]; 85.7 µM (inactive) in test [5]. Further, the GI50 in [6] was 35.4 µM (inactive); in [8] it was 41.6 µM (inactive); in test [9], 14.6 µM (inactive); in test [10] it was > 100 µM (inactive); in [11] it was > 100 µM (inactive); in [12] it was > 100 µM (inactive). Besides, the GI50 in test [13] is 24.8 µM (inactive); in [14], 20.6 µM (inactive); in test [15], 34.5 µM (inactive); in test [16], > 100 µM (inactive).

`CC(=O)OCC1OC(OCC2OC(N3C(=S)N[C@H]([C@@H](O)[C@H](O)[C@H](O)CO)[C@H]3O)C(OC(C)=O)C(OC(C)=O)C2OC(C)=O)C(OC(C)=O)C(OC(C)=O)C1OC(C)=O` (some centres not stated): the GI50 was > 100 µM (inactive) in [1]; > 100 µM (inactive) in [2]; 65.6 µM (inactive) in [17]; > 100 µM (inactive) in test [3]; > 100 µM (inactive) in [4]; > 100 µM (inactive) in [6]. The GI50 in [7] is 83.8 µM (inactive); in [8], 33.5 µM (inactive); in [9], > 100 µM (inactive); in test [10], > 100 µM (inactive); in test [11], > 100 µM (inactive); in [12], > 100 µM (inactive). The GI50 in [13], in [14] and in test [15] was > 100 µM (inactive) throughout.
